Test results reported in patent publication US20080097385A1, “Therapeutic Adjuncts to Enhance the Organ Protective Effects of Postconditioning” (priority 2004, published 2008).
Like-named read-outs stand apart in the source and are kept apart here.

Legend:
[1] = tested on: anesthetized open-chest rats (LCA occlusion/reperfusion); assay: Neutrophil (PMN) accumulation (myeloperoxidase activity) in the area at risk, rat LCA occlusion/reperfusion; format: in vivo; settings: postconditioning + antagonist, postconditioning 1.0±0.2, Control 2.2±0.4
Description: Adenosine is a mediator of the cardioprotection of postconditioning. Isolated-perfused mouse hearts were subjected to 20 min global ischemia (I) and 30 min reperfusion (R) with or without Postcon (6 cycles of 10 sec. R & occlusion). Intravascular purines in coronary effluent were analyzed by HPLC. To determine whether endogenous adenosine played a physiological role in postconditioning, the left coronary artery (LCA) was occluded for 30 min and reperfused for 3 hours in anesthetized open-chest rats. The rats were randomly divided into six groups (n=8 each): Control (no intervention); postconditioning (3 cycles of 10-s R followed by 10-s LCA I before 3 hours R); 8-SPT (subtype non-selective adenosine receptor antagonist, 10 mg/kg), or ZW241385 (A2a receptor antagonist, 0.2 mg/kg), was given 5 min before R with or without postconditioning. In mouse hearts, postconditioning decreased effluent [adenosine] at 2 min R (58±5* vs 155±16 nM/min/g), and improved contractile function (LV developed pressure 32±7* vs 16±2 mmHg) and end-diastolic pressure (27±3* vs 36±3 mmHg) at 5 min R which persisted at 30 min R. In in vivo rats, postconditioning reduced infarct size (TTC) vs the control group (40±3.1%* vs 52±2.2%). 8-SPT (51±2.5%) or ZM241385 alone (50±2.1%) without postconditioning had no effect on infarct size. […]

[2] = tested on: anesthetized open-chest rats (LCA occlusion/reperfusion); assay: Anesthetized open-chest rats: LCA occlusion 30 min, reperfusion 3 h; infarct size (TTC) with adenosine receptor antagonists with or without postconditioning; format: in vivo; settings: rat
Description: Adenosine is a mediator of the cardioprotection of postconditioning. Isolated-perfused mouse hearts were subjected to 20 min global ischemia (I) and 30 min reperfusion (R) with or without Postcon (6 cycles of 10 sec. R & occlusion). Intravascular purines in coronary effluent were analyzed by HPLC. To determine whether endogenous adenosine played a physiological role in postconditioning, the left coronary artery (LCA) was occluded for 30 min and reperfused for 3 hours in anesthetized open-chest rats. The rats were randomly divided into six groups (n=8 each): Control (no intervention); postconditioning (3 cycles of 10-s R followed by 10-s LCA I before 3 hours R); 8-SPT (subtype non-selective adenosine receptor antagonist, 10 mg/kg), or ZW241385 (A2a receptor antagonist, 0.2 mg/kg), was given 5 min before R with or without postconditioning. In mouse hearts, postconditioning decreased effluent [adenosine] at 2 min R (58±5* vs 155±16 nM/min/g), and improved contractile function (LV developed pressure 32±7* vs 16±2 mmHg) and end-diastolic pressure (27±3* vs 36±3 mmHg) at 5 min R which persisted at 30 min R. In in vivo rats, postconditioning reduced infarct size (TTC) vs the control group (40±3.1%* vs 52±2.2%). 8-SPT (51±2.5%) or ZM241385 alone (50±2.1%) without postconditioning had no effect on infarct size. The infarct-sparing effect of postconditioning was abrogated by 8-SPT and ZM241385 (50±1.8% and 49±2.6%). Neutrophil (PMN) accumulation (myeloperoxidase activity) in the area at risk was less in postconditioning vs Control (1.0±0.2* vs 2.2±0.4 U/100 g protein); adenosine receptor antagonists blocked the reduction of PMN accumulation in postconditioning (postconditioning+8-SPT 2.1±0.2; postconditioning+ZM241385 1.6+0.2).

[3] = tested on: rat model of myocardial infarction; assay: Rat model of myocardial infarction: LCA occlusion 30 min, reperfusion 3 h; infarct size with cariporide with or without postconditioning; format: in vivo
Description: Cross-hatched bar=time when the sodium-hydrogen exchange inhibitor (NHE-1), cariporide is administered intravenously. Vertical hatched bar=postconditioning algorithm. Control (n=8); occlusion of the left coronary artery (LCA) for 30 min (dark bar), was followed by 3 h of reperfusion (open bar). Post-con (n=8); 10 of full reperfusion (R, open bar) and 10 s of re-occlusion ischemia (I, dark bar) were repeated for three cycles. NHE(1) (n=8); cariporide (1 mg/kg) was injected 5 min prior to reperfusion, followed by unbridled R. NHE(1)+Post-con (n=8); cariporide followed by Post-con. Delay (D)-NHE(1) (n=8); cariporide was injected for 5 min after 1 min of full unbridled reperfusion. Post-con+D-NHE(1) (n=8); Post-con followed by injecting cariporide for 5 min. […] Infarct size is expressed as a percentage of AN and AAR. In all groups, infarct size decreased compared to that of Control. […] Post-con=postconditioning. Values are means ±SEM. Postconditioning can be enhanced by pharmacological means which capture the protective actions of the proximal mediators such as adenosine and opioids. In a rat model of myocardial infarction, it can be shown that the dual approach of attenuating reperfusion injury by applying postconditioning in the presence of a sodium-hydrogen exchange (NHE-1) inhibitor during early reperfusion achieves greater infarct size reduction than either intervention alone. Specifically, in an anesthetized rat model, the left coronary artery (LCA) was occluded for 30 min of ischemia (I) and reperfused for 3 hours. Rats were randomly divided into six groups (n=8 each) (FIG. 10): Control: no intervention at reperfusion; Postconditioning: three cycles of 10-s reperfusion followed by 10-s re-occlusion were applied during the first minute of reperfusion; NHE(1): cariporide (1 mg/kg) was infused 5 min before reperfusion, with or without postconditioning; Delayed (D)-NHE(1): a 5-minute infusion of cariporide was begun 1 min after onset of reperfusion equivalent to postconditioning period; Post-con+D-NHE(1): Completion of postconditioning was followed immediately by cariporide infusion for 5 min. […] When NHE(1) preceded postconditioning as a reperfusion intervention, infarct size was not further reduced (45±2%*) compared to either intervention alone. However, an additive reduction in infarct size was achieved when postconditioning preceded NHE(1) inhibitor at reperfusion (Post-con+D-N-HE(1), 34±2%). Thus, infarct size reduction by postconditioning is enhanced by NHE inhibition at reperfusion when postconditioning precedes cariporide administration.

[4] = tested on: rabbit model of myocardial infarction; settings: cited from earlier work
[5] = antagonist alone, given 5 min before reperfusion, without postconditioning, control 52±2.2%
[6] = antagonist given 5 min before reperfusion, with postconditioning, postconditioning alone 40±3.1%

**Q.** Which results are given for Cn1c(=O)c2[nH]c(-c3ccc(S(=O)(=O)O)cc3)nc2n(C)c1=O [8-SPT]?
**A.** neutrophil (PMN) accumulation (myeloperoxidase activity) in the area at risk [1]: 2.1±0.2 U/100 g protein; infarct size (TTC) [2, 5]: 51±2.5%; infarct size (TTC) [2, 6]: 50±1.8%

**Q.** Which results are given for Nc1nc(NCCc2ccc(O)cc2)nc2nc(-c3ccco3)nn12 [ZM241385]?
**A.** neutrophil (PMN) accumulation (myeloperoxidase activity) in the area at risk [1]: 1.6+0.2 U/100 g protein; infarct size (TTC) [2, 5]: 50±2.1%; infarct size (TTC) [2, 6]: 49±2.6%

**Q.** With CC(C)c1ccc(C(=O)NC(=N)N)cc1S(C)(=O)=O [cariporide] as the compound, how does the “infarct size (AN as percentage of AAR)” value ([3]; NHE(1) alone: cariporide 1 mg/kg infused 5 min before reperfusion, no postconditioning) read?
**A.** The value was 43±2%.

**Q.** And the “infarct size (AN as percentage of AAR)” value ([3]; NHE(1)+Post-con: cariporide 1 mg/kg 5 min before reperfusion, followed by postconditioning)?
**A.** The value was 45±2%.

**Q.** And the “decrease in infarct size compared with postconditioning alone” value ([3]; Post-con+D-NHE(1) group, FIG. 11)?
**A.** Its value is “significantly greater than postconditioning alone”.

**Q.** And the “infarct size (AN as percentage of AAR)” value ([3]; Post-con+D-NHE(1): postconditioning followed immediately by 5 min cariporide infusion)?
**A.** The value was 34±2%.

**Q.** For FC(F)OC(Cl)C(F)(F)F (stereo not shown) [isoflurane], which infarct size ([4]; 0.5 minimum alveolar concentration isoflurane alone, control 41±2%) is on record?
**A.** Its infarct size is 43±3 % of the left ventricular area at risk.

**Q.** And the infarct size ([4]; 1.0 minimum alveolar concentration isoflurane alone, control 41±2%)?
**A.** Its infarct size is 21±2 % of the left ventricular area at risk.

**Q.** And the infarct size ([4]; combined postconditioning (10 s) and 0.5 minimum alveolar concentration isoflurane)?
**A.** Its infarct size is 17±5 % of the left ventricular area at risk.
